In patent US20240309007A1, “CRYSTALLINE FORMS OF 3-{4-[(2R)-2-AMINOPROPOXY]PHENYL}-N-[(1R)- 1-(3-FLUOROPHENYL) ETHYL]IMIDAZO[1,2-B]PYRIDAZIN-6-AMINE AND SALTS THEREOF” (ANHEART THERAPEUTICS (HANGZHOU) CO., LTD., priority 2021, published 2024):
Entries after “also recorded” stand apart in the source; their conditions may differ.

Test: Dynamic Vapor Sorption (DVS), hygroscopicity
Type: physicochemical
Conditions: for hygroscopicity (in words): from DVS weight increase at 80% RH; for weight increase (DVS): at 80% RH, 25±1° C.
Method: Dynamic Vapor Sorption (DVS) was performed by using Intrinsic DVS (Surface Measurement Systems, UK). A sample was weighed in an amount of 20-30 mg and was placed in a sample chamber. The measurement was performed at DMDT mode when the temperature of the sample chamber was maintained at 25±1° C.

Row | SMILES | crystalline form (XRPD) of the sample before and after the DVS test | hygroscopicity (in words) | weight increase (DVS)
1 | C[C@@H](N)COc1ccc(-c2cnc3ccc(N[C@H](C)c4cccc(F)c4)nn23)cc1 [crystalline form A of Compound 1 free base] [3-{4-[(2R)-2-aminopropoxy]phenyl}-N-[(1R)-1-(3-fluorophenyl)ethyl]imidazo[1,2-b]pyridazin-6-amine] | did not change | almost no hygroscopicity; also recorded: very low or nearly no hygroscopicity | –
2 | C[C@@H](N)COc1ccc(-c2cnc3ccc(N[C@H](C)c4cccc(F)c4)nn23)cc1 [crystalline form B of Compound 1 adipate, 3-{4-[(2R)-2-aminopropoxy]phenyl}-N-[(1R)-1-(3-fluorophenyl)ethyl]imidazo[1,2-b]pyridazin-6-amine] | – | has hygroscopicity | about 8.2%
3 | C[C@@H](N)COc1ccc(-c2cnc3ccc(N[C@H](C)c4cccc(F)c4)nn23)cc1 [crystalline form B of Compound 1 free base] [3-{4-[(2R)-2-aminopropoxy]phenyl}-N-[(1R)-1-(3-fluorophenyl)ethyl]imidazo[1,2-b]pyridazin-6-amine] | changed | has hygroscopicity | –
4 | C[C@@H](N)COc1ccc(-c2cnc3ccc(N[C@H](C)c4cccc(F)c4)nn23)cc1 [crystalline form C of Compound 1 adipate, 3-{4-[(2R)-2-aminopropoxy]phenyl}-N-[(1R)-1-(3-fluorophenyl)ethyl]imidazo[1,2-b]pyridazin-6-amine] | – | low hygroscopicity | about 1%

Second part, the compound after the results:

Row | crystalline form (XRPD) of the sample before and after the DVS test | hygroscopicity (in words) | weight increase (DVS) | SMILES
5 | no crystalline form change | has hygroscopicity | – | C[C@@H](N)COc1ccc(-c2cnc3ccc(N[C@H](C)c4cccc(F)c4)nn23)cc1 [crystalline form C of Compound 1 free base] [3-{4-[(2R)-2-aminopropoxy]phenyl}-N-[(1R)-1-(3-fluorophenyl)ethyl]imidazo[1,2-b]pyridazin-6-amine]
6 | – | low hygroscopicity | – | C[C@@H](N)COc1ccc(-c2cnc3ccc(N[C@H](C)c4cccc(F)c4)nn23)cc1 [crystalline form D of Compound 1 adipate, 3-{4-[(2R)-2-aminopropoxy]phenyl}-N-[(1R)-1-(3-fluorophenyl)ethyl]imidazo[1,2-b]pyridazin-6-amine]
7 | did not change | some hygroscopicity | 2.896% | C[C@@H](N)COc1ccc(-c2cnc3ccc(N[C@H](C)c4cccc(F)c4)nn23)cc1 [crystalline form D of Compound 1 free base] [3-{4-[(2R)-2-aminopropoxy]phenyl}-N-[(1R)-1-(3-fluorophenyl)ethyl]imidazo[1,2-b]pyridazin-6-amine]
